Columns and labels:
[1] = test system: IMP-1-producing E. coli NUBL-24; assay: Time-kill assay; type: cell-based, Escherichia coli; settings: 10 μg/ml SFC added to 1 μg/ml MPM, 6 h
Protocol: The initial density of E. coli NUBL-24 (blaIMP-1) (MPM MIC, 8 μg/ml) was adjusted to approximately 5 × 10^6 CFU/ml. Either MPM (1 μg/ml) alone or SFC (10 μg/ml) alone or a combination of the two was added to the bacterial solution, and then incubation was performed at 37°C. LB broth containing only bacteria was used as a control. At 0, 2, 4, 6, and 24 h after adding the agents, an aliquot of bacterial culture was removed, diluted, and spotted on LB agar plates to count the viable bacterial cells. The detection limit was set at 200 CFU/ml.

[2] = biological target: T1, L1 (Stenotrophomonas maltophilia, UniProt P52700); assay: In vitro inhibition assay, IPM hydrolysis by L1; type: biochemical; settings: even in the presence of 100 μM SFC
T1 construct: made in house
T1 sequence (P52700 34-290): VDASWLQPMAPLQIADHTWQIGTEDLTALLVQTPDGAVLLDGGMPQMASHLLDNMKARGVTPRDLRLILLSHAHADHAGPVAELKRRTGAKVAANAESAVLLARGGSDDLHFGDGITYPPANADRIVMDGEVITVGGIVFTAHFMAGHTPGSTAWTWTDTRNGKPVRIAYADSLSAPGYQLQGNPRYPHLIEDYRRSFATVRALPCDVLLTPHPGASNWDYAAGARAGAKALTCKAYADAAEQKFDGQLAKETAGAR
Protocol: MBL (10 nM) was mixed with the inhibitors and incubated for 5 min at 30°C. IPM was added to reach a concentration of 150 μM, and the velocity of IPM hydrolysis was monitored at 298 nm. The assay was performed at 30°C using 10 mM HEPES (pH 7.5) buffer containing 200 mM NaCl and 50 μg/ml bovine serum albumin (BSA) for IMP-1, NDM-1, VIM-2, and SMB-1. For SFH-1 and L1, another 10 mM HEPES (pH 7.5) buffer containing 200 mM NaCl, 20 μM ZnSO4, and 50 μg/ml BSA was used.

Cc1oc(C)c(S(N)(=O)=O)c1C(=O)O [SFC, 2,5-dimethyl-4-sulfamoylfuran-3-carboxylic acid]
Reduction of bacterial population [1]: more than 1,000 fold | Inhibition of IPM hydrolyzing activity of L1 [2]: did not inhibit
